# Reference: paper PMC9134006 (RSC Advances, 2021)
# Key:
# hMAO-B (human MAO-B) = target: T1, hMAO-B (human MAO-B) (Homo sapiens, UniProt P27338); test: Inhibition of hMAO-B; type: biochemical; conditions: for remaining activity at 10 µM: read-out: hMAO-B RA (residual activity) at 10 μM; for remaining activity at 100 µM: read-out: hMAO-B RA (residual activity) at 100 μM; for inhibition of hMAO-B (in words): versus hAChE, hBChE, hMAO-A
# T1 sequence (P27338 1-520): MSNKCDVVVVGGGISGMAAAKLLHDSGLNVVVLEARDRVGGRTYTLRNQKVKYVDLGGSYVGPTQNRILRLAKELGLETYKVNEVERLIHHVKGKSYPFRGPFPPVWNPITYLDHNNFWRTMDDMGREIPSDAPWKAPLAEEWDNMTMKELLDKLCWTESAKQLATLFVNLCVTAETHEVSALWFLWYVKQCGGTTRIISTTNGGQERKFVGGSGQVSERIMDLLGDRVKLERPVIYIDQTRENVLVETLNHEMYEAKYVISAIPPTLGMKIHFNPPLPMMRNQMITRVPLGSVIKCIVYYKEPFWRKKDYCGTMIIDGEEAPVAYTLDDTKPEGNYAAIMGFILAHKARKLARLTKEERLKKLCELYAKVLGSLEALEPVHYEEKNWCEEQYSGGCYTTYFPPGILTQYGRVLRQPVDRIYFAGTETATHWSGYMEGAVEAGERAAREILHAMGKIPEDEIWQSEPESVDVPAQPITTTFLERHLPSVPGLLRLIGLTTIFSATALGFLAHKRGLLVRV
# hBChE (human BChE) = hBChE (human BChE) (Homo sapiens, UniProt P06276); test: Inhibition of hBChE; type: biochemical; conditions: for remaining activity at 10 µM: read-out: hBChE RA (residual activity) at 10 μM; for remaining activity at 100 µM: read-out: hBChE RA (residual activity) at 100 μM
# Chain of hBChE (human BChE) (P06276 29-602): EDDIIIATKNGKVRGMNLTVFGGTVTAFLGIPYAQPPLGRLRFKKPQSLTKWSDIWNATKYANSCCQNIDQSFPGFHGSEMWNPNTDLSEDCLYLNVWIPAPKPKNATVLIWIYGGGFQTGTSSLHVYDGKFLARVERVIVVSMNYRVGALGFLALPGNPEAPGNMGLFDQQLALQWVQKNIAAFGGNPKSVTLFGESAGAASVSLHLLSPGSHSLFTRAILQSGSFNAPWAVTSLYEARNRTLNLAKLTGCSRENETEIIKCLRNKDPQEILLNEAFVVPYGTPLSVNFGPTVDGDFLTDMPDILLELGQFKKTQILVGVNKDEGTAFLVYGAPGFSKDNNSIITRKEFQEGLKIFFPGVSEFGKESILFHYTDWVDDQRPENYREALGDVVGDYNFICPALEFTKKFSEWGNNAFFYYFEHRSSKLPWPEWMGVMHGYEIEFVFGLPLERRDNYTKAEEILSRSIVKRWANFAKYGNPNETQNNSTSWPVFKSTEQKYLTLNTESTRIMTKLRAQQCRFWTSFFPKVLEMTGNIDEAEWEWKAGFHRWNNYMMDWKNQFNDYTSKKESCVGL
# hMAO-A (human MAO-A) = target: T2, hMAO-A (human MAO-A) (Homo sapiens, UniProt P21397); test: Inhibition of hMAO-A; conditions: for remaining activity at 10 µM: read-out: hMAO-A RA (residual activity) at 10 μM; for remaining activity at 100 µM: read-out: hMAO-A RA (residual activity) at 100 μM
# T2 sequence (P21397 1-527): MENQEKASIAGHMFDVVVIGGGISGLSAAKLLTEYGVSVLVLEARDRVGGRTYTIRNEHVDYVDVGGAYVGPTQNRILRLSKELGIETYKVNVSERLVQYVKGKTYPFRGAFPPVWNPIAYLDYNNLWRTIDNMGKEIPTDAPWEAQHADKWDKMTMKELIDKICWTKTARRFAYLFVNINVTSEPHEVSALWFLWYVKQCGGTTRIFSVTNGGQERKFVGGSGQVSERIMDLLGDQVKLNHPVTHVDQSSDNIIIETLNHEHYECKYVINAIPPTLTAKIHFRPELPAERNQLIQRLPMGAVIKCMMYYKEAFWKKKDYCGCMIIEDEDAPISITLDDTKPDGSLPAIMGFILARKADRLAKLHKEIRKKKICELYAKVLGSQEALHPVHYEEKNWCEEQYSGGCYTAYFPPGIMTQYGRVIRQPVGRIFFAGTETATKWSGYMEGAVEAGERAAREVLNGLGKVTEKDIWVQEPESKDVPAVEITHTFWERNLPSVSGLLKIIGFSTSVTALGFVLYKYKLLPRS
# hAChE (human AChE) = hAChE (human AChE) (Homo sapiens, UniProt P22303); test: Inhibition of hAChE; type: biochemical; conditions: for remaining activity at 10 µM: read-out: hAChE RA (residual activity) at 10 μM; for remaining activity at 100 µM: read-out: hAChE RA (residual activity) at 100 μM
# Chain of hAChE (human AChE) (P22303 32-614): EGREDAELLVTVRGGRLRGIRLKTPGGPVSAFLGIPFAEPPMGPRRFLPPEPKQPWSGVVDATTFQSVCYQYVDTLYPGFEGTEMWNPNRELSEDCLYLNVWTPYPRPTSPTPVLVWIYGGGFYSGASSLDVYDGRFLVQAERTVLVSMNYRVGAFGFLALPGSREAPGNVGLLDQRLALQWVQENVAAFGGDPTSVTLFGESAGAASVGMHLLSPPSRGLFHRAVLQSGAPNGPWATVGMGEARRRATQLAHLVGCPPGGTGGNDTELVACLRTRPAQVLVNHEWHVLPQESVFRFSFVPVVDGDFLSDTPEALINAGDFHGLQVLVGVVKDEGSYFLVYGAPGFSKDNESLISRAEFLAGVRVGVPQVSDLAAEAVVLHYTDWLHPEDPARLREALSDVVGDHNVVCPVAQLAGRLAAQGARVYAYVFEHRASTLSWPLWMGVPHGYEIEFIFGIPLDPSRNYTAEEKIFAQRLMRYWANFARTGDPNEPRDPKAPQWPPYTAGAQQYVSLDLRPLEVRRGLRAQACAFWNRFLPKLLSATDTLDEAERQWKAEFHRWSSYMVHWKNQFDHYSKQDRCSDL
# [1] = ref 29b,37; cited from earlier work
compound,measurement,setting,value
"COc1ccc(-c2cnn3c(C(F)(F)F)cc(=O)[nH]c23)cc1 [Compound 5a, 3-(4-Methoxyphenyl)-7-(trifluoromethyl)pyrazolo[1,5-a]pyrimidin-5(4H)-one]",IC50,hMAO-B (human MAO-B),35 µM
same,remaining activity at 10 µM,hMAO-B (human MAO-B),73%
same,remaining activity at 100 µM,hMAO-B (human MAO-B),26%
same,inhibition of hMAO-B (in words),hMAO-B (human MAO-B),selectively inhibit hMAO-B in the micromolar range
same,remaining activity at 10 µM,hBChE (human BChE),90%
same,remaining activity at 100 µM,hBChE (human BChE),103%
same,remaining activity at 10 µM,hMAO-A (human MAO-A),95%
same,remaining activity at 100 µM,hMAO-A (human MAO-A),99%
same,remaining activity at 10 µM,hAChE (human AChE),93%
same,remaining activity at 100 µM,hAChE (human AChE),86%
"COc1cccc(-c2cnn3c(C(F)(F)F)cc(=O)[nH]c23)c1 [Compound 5f, 3-(3-Methoxyphenyl)-7-(trifluoromethyl)pyrazolo[1,5-a]pyrimidin-5(4H)-one]",IC50,hMAO-B (human MAO-B),101 µM
same,remaining activity at 10 µM,hMAO-B (human MAO-B),80%
same,remaining activity at 100 µM,hMAO-B (human MAO-B),40%
same,inhibition of hMAO-B (in words),hMAO-B (human MAO-B),selectively inhibit hMAO-B in the micromolar range
same,remaining activity at 10 µM,hBChE (human BChE),97%
same,remaining activity at 100 µM,hBChE (human BChE),95%
same,remaining activity at 10 µM,hMAO-A (human MAO-A),92%
same,remaining activity at 100 µM,hMAO-A (human MAO-A),97%
same,remaining activity at 10 µM,hAChE (human AChE),91%
same,remaining activity at 100 µM,hAChE (human AChE),88%
"O=c1cc(C(F)(F)F)n2ncc(-c3ccc4c(c3)OCCO4)c2[nH]1 [Compound 5h, 3-(2,3-Dihydrobenzo[b][1,4]dioxin-6-yl)-7-(trifluoromethyl)pyrazolo[1,5-a]pyrimidin-5(4H)-one]",IC50,hMAO-B (human MAO-B),5.36 µM
same,remaining activity at 10 µM,hMAO-B (human MAO-B),36%
same,remaining activity at 100 µM,hMAO-B (human MAO-B),8%
same,inhibition of hMAO-B (in words),hMAO-B (human MAO-B),selectively inhibit hMAO-B in the micromolar range
same,remaining activity at 10 µM,hBChE (human BChE),94%
same,remaining activity at 100 µM,hBChE (human BChE),95%
same,remaining activity at 10 µM,hMAO-A (human MAO-A),110%
same,remaining activity at 100 µM,hMAO-A (human MAO-A),95%
same,remaining activity at 10 µM,hAChE (human AChE),91%
same,remaining activity at 100 µM,hAChE (human AChE),86%
"CC(=O)c1ccc(-c2cnn3c(C(F)(F)F)cc(=O)[nH]c23)cc1 [Compound 5i, 3-(4-Acetylphenyl)-7-(trifluoromethyl)pyrazolo[1,5-a]pyrimidin-5(4H)-one]",IC50,hMAO-B (human MAO-B),26.2 µM
same,remaining activity at 10 µM,hMAO-B (human MAO-B),75%
same,remaining activity at 100 µM,hMAO-B (human MAO-B),21%
same,inhibition of hMAO-B (in words),hMAO-B (human MAO-B),selectively inhibit hMAO-B in the micromolar range
same,remaining activity at 10 µM,hBChE (human BChE),91%
same,remaining activity at 100 µM,hBChE (human BChE),99%
same,remaining activity at 10 µM,hMAO-A (human MAO-A),100%
same,remaining activity at 100 µM,hMAO-A (human MAO-A),98%
same,remaining activity at 10 µM,hAChE (human AChE),90%
same,remaining activity at 100 µM,hAChE (human AChE),91%
"FC(F)(F)c1cc(-c2ccc(Br)cc2)nc2c(-c3ccccc3)cnn12 [Compound 11h, 5-(4-Bromophenyl)-3-phenyl-7-(trifluoromethyl)pyrazolo[1,5-a]pyrimidine]",anti-inflammatory activity,[1],83.4%
"COc1ccc2c(c1)c(CC(=O)O)c(C)n2C(=O)c1ccc(Cl)cc1 [Indomethacin, reference compound]",anti-inflammatory activity,[1],84.2%
